According to patent US9334279B2, “Hepatitis C virus inhibitors” (BRISTOL-MYERS SQUIBB COMPANY, priority 2012, dated 2016):

Key:
HCV GT1a(H77) replicon = assay: HCV replicon luciferase reporter assay, genotype 1a; assay type: cell-based, HCV genotype 1a; settings: Hepatitis C virus, 72 h, HUH-7 cells, Renilla luciferase, 3 days incubation, read-out: LE_1a (EC50, range)
Method in brief: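 Huh-7 cells stably carried a GT1a(H77) Renilla luciferase replicon with NS3 P1496L and NS5A S2204I adaptive mutations. Luminescence was read after 2 h with 7.5 μM EnduRen, and EC50 came from a four-parameter logistic fit; CC50 came from multiplexed Cell Titer-Blue (8 h).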

HCV GT1b(Con1) replicon = assay: HCV replicon luciferase reporter assay, genotype 1b; assay type: cell-based, HCV genotype 1b; settings: Hepatitis C virus, 72 h, HUH-7 cells, Renilla luciferase, 3 days incubation, read-out: LE_1b (EC50, range)
Method in brief: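 HUH-7 cells stably carrying a Con1 GT1b replicon with Renilla luciferase and Ser1179Ile adaptive mutation; 3.0×10^3 cells/well, DMEM 4% FCS, 0.5% DMSO, twenty-point 3-fold titration, 3 days 37 °C. Luminescence 2 h after 7.5 μM EnduRen; EC50 by four-parameter logistic fit. CC50 from multiplexed Cell Titer-Blue fluorescence (8 h).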

**Q.** With `CC(C)Oc1ccc(-c2cc(Cl)cc(O[C@@H]3C[C@H]4C(=O)N[C@]5(C(=O)NS(=O)(=O)C6(C)CC6)C[C@H]5/C=C\CC[C@H](C)C[C@@H](C)[C@H](NC(=O)OC(C)(C)C(F)(F)F)C(=O)N4C3)n2)cc1` [Compound 1028, 1,1,1-trifluoro-2-methylpropan-2-yl ((2R,6S,7R,9S,13aS,14aR,16aS,Z)-2-((4-chloro-6-(4-isopropoxyphenyl)pyridin-2-yl)oxy)-7,9-dimethyl-14a-(((1-methylcyclopropyl)sulfonyl)carbamoyl)-5,16-dioxo-1,2,3,5,6,7,8,9,10,11,13a,14,14a,15,16,16a-hexadecahydrocyclopropa[e]pyrrolo[1,2-a][1,4]diazacyclopentadecin-6-yl)carbamate] as the molecule, how does the EC50 (HCV GT1a(H77) replicon) read?
**A.** 35 to 359 nM

**Q.** And the EC50 (HCV GT1b(Con1) replicon)?
**A.** 35 to 359 nM

**Q.** For `CC(C)Oc1ccc(-c2cc(Cl)cc(O[C@@H]3C[C@H]4C(=O)N[C@]5(C(=O)NS(=O)(=O)C6(C)CC6)C[C@H]5/C=C\CC[C@@H](C)C[C@@H](C)[C@H](NC(=O)OC(C)(C)C)C(=O)N4C3)n2)cc1` [Compound 1029, tert-butyl ((2R,6S,7R,9R,13aS,14aR,16aS,Z)-2-((4-chloro-6-(4-isopropoxyphenyl)pyridin-2-yl)oxy)-7,9-dimethyl-14a-(((1-methylcyclopropyl)sulfonyl)carbamoyl)-5,16-dioxo-1,2,3,5,6,7,8,9,10,11,13a,14,14a,15,16,16a-hexadecahydrocyclopropa[e]pyrrolo[1,2-a][1,4]diazacyclopentadecin-6-yl)carbamate], which EC50 (HCV GT1a(H77) replicon) is on record?
**A.** 1.01 to 5 nM

**Q.** And the EC50 (HCV GT1b(Con1) replicon)?
**A.** 1.01 to 5 nM

**Q.** With `CC(C)Oc1ccc(-c2cc(Cl)cc(O[C@@H]3C[C@H]4C(=O)N[C@]5(C(=O)NS(=O)(=O)C6(C)CC6)C[C@H]5/C=C\CC[C@H](C)C[C@@H](C)[C@H](NC(=O)OC(C)(C)C)C(=O)N4C3)n2)cc1` [Compound 1030, tert-butyl ((2R,6S,7R,9S,13aS,14aR,16aS,Z)-2-((4-chloro-6-(4-isopropoxyphenyl)pyridin-2-yl)oxy)-7,9-dimethyl-14a-(((1-methylcyclopropyl)sulfonyl)carbamoyl)-5,16-dioxo-1,2,3,5,6,7,8,9,10,11,13a,14,14a,15,16,16a-hexadecahydrocyclopropa[e]pyrrolo[1,2-a][1,4]diazacyclopentadecin-6-yl)carbamate] as the molecule, how does the EC50 (HCV GT1a(H77) replicon) read?
**A.** 35 to 359 nM

**Q.** What about the EC50 (HCV GT1b(Con1) replicon) of the same molecule?
**A.** 35 to 359 nM

**Q.** `C[C@@H]1CC/C=C\[C@@H]2C[C@@]2(C(=O)NS(=O)(=O)C2(C)CC2)NC(=O)[C@@H]2C[C@@H](Oc3cc(-c4nccs4)ccn3)CN2C(=O)[C@@H](NC(=O)OC(C)(C)C(F)(F)F)[C@H](C)C1` [Compound 1031, 1,1,1-trifluoro-2-methylpropan-2-yl ((2R,6S,7R,9R,13aS,14aR,16aS,Z)-7,9-dimethyl-14a-(((1-methylcyclopropyl)sulfonyl)carbamoyl)-5,16-dioxo-2-((4-(thiazol-2-yl)pyridin-2-yl)oxy)-1,2,3,5,6,7,8,9,10,11,13a,14,14a,15,16,16a-hexadecahydrocyclopropa[e]pyrrolo[1,2-a][1,4]diazacyclopentadecin-6-yl)carbamate] was tested. Which EC50 (HCV GT1a(H77) replicon) did it give?
**A.** 1.01 to 5 nM

**Q.** And the EC50 (HCV GT1b(Con1) replicon)?
**A.** 0.51 to 1 nM

**Q.** How did the EC50 (HCV GT1a(H77) replicon) turn out when `C[C@H]1CC/C=C\[C@@H]2C[C@@]2(C(=O)NS(=O)(=O)C2(C)CC2)NC(=O)[C@@H]2C[C@@H](Oc3cc(-c4nccs4)ccn3)CN2C(=O)[C@@H](NC(=O)OC(C)(C)C(F)(F)F)[C@H](C)C1` [Compound 1032, 1,1,1-trifluoro-2-methylpropan-2-yl ((2R,6S,7R,9S,13aS,14aR,16aS,Z)-7,9-dimethyl-14a-(((1-methylcyclopropyl)sulfonyl)carbamoyl)-5,16-dioxo-2-((4-(thiazol-2-yl)pyridin-2-yl)oxy)-1,2,3,5,6,7,8,9,10,11,13a,14,14a,15,16,16a-hexadecahydrocyclopropa[e]pyrrolo[1,2-a][1,4]diazacyclopentadecin-6-yl)carbamate] was run?
**A.** 5.01 to 35 nM

**Q.** And the EC50 (HCV GT1b(Con1) replicon)?
**A.** 5.01 to 35 nM

**Q.** `CC[C@@H]1O[C@H](C)CC/C=C\[C@@H]2C[C@@]2(C(=O)NS(=O)(=O)C2(C)CC2)NC(=O)[C@@H]2C[C@@H](Oc3cc(-c4ccc(OC(C)C)cc4)nc(-c4cncs4)c3)CN2C(=O)[C@H]1NC(=O)OC(C)(C)C(F)(F)F` [Compound 1033, 1,1,1-trifluoro-2-methylpropan-2-yl ((2R,6S,7S,9R,13aS,14aR,16aS,Z)-7-ethyl-2-((2-(4-isopropoxyphenyl)-6-(thiazol-5-yl)pyridin-4-yl)oxy)-9-methyl-14a-(((1-methylcyclopropyl)sulfonyl)carbamoyl)-5,16-dioxo-2,3,5,6,7,9,10,11,13a,14,14a,15,16,16a-tetradecahydro-1H-cyclopropa[i]pyrrolo[1,2-e][1,5,8]oxadiazacyclopentadecin-6-yl)carbamate] was tested. Which EC50 (HCV GT1a(H77) replicon) did it give?
**A.** 1.01 to 5 nM

**Q.** And the EC50 (HCV GT1b(Con1) replicon)?
**A.** 0.51 to 1 nM

**Q.** `CC[C@@H]1O[C@H](C)CC/C=C\[C@@H]2C[C@@]2(C(=O)NS(=O)(=O)C2(C)CC2)NC(=O)[C@@H]2C[C@@H](Oc3cc(-c4ccc(OC(C)C)cc4)nc(-c4cncs4)c3)CN2C(=O)[C@H]1NC(=O)OC1(C(F)(F)F)CCCOC1` (stereo partly drawn) [Compound 1034, 3-(trifluoromethyl)tetrahydro-2H-pyran-3-yl ((2R,6S,7S,9R,13aS,14aR,16aS,Z)-7-ethyl-2-((2-(4-isopropoxyphenyl)-6-(thiazol-5-yl)pyridin-4-yl)oxy)-9-methyl-14a-(((1-methylcyclopropyl)sulfonyl)carbamoyl)-5,16-dioxo-2,3,5,6,7,9,10,11,13a,14,14a,15,16,16a-tetradecahydro-1H-cyclopropa[i]pyrrolo[1,2-e][1,5,8]oxadiazacyclopentadecin-6-yl)carbamate] was tested. Which EC50 (HCV GT1a(H77) replicon) did it give?
**A.** 1.01 to 5 nM

**Q.** And the EC50 (HCV GT1b(Con1) replicon)?
**A.** 0.51 to 1 nM

**Q.** For `CC[C@@H]1O[C@H](C)CC/C=C\[C@@H]2C[C@@]2(C(=O)NS(=O)(=O)C2(C)CC2)NC(=O)[C@@H]2C[C@@H](Oc3cc(-c4ccc(OC(C)C)cc4)nc(-c4nccs4)c3)CN2C(=O)[C@H]1NC(=O)OC1(C(F)(F)F)CCCOC1` (stereo partly drawn) [Compound 1035, 3-(trifluoromethyl)tetrahydro-2H-pyran-3-yl ((2R,6S,7S,9R,13aS,14aR,16aS,Z)-7-ethyl-2-((2-(4-isopropoxyphenyl)-6-(thiazol-2-yl)pyridin-4-yl)oxy)-9-methyl-14a-(((1-methylcyclopropyl)sulfonyl)carbamoyl)-5,16-dioxo-2,3,5,6,7,9,10,11,13a,14,14a,15,16,16a-tetradecahydro-1H-cyclopropa[i]pyrrolo[1,2-e][1,5,8]oxadiazacyclopentadecin-6-yl)carbamate], which EC50 (HCV GT1a(H77) replicon) is on record?
**A.** 0.51 to 1 nM

**Q.** And the EC50 (HCV GT1b(Con1) replicon)?
**A.** 0.51 to 1 nM

**Q.** What does the source list for `CC[C@@H]1O[C@H](C)CC/C=C\[C@@H]2C[C@@]2(C(=O)NS(=O)(=O)C2(C)CC2)NC(=O)[C@@H]2C[C@@H](Oc3cc(-c4ccc(OC(C)C)cc4)nc(-c4cscn4)c3)CN2C(=O)[C@H]1NC(=O)OC1(C(F)(F)F)CCCOC1` (stereo partly drawn) [Compound 1036, 3-(trifluoromethyl)tetrahydro-2H-pyran-3-yl ((2R,6S,7S,9R,13aS,14aR,16aS,Z)-7-ethyl-2-((2-(4-isopropoxyphenyl)-6-(thiazol-4-yl)pyridin-4-yl)oxy)-9-methyl-14a-(((1-methylcyclopropyl)sulfonyl)carbamoyl)-5,16-dioxo-2,3,5,6,7,9,10,11,13a,14,14a,15,16,16a-tetradecahydro-1H-cyclopropa[i]pyrrolo[1,2-e][1,5,8]oxadiazacyclopentadecin-6-yl)carbamate]?
**A.** EC50 (HCV GT1a(H77) replicon): 0.51 to 1 nM; EC50 (HCV GT1b(Con1) replicon): 0.1 to 0.5 nM

**Q.** How did the EC50 (HCV GT1a(H77) replicon) turn out when `CC[C@@H]1O[C@H](C)CC/C=C\[C@@H]2C[C@@]2(C(=O)NS(=O)(=O)C2(C)CC2)NC(=O)[C@@H]2C[C@@H](Oc3cc(-c4ccc(OC(C)C)cc4)nc(-c4ccccn4)c3)CN2C(=O)[C@H]1NC(=O)OC1(C(F)(F)F)CCCOC1` (stereo partly drawn) [Compound 1037, 3-(trifluoromethyl)tetrahydro-2H-pyran-3-yl ((2R,6S,7S,9R,13aS,14aR,16aS,Z)-7-ethyl-2-((6-(4-isopropoxyphenyl)-[2,2′-bipyridin]-4-yl)oxy)-9-methyl-14a-(((1-methylcyclopropyl)sulfonyl)carbamoyl)-5,16-dioxo-2,3,5,6,7,9,10,11,13a,14,14a,15,16,16a-tetradecahydro-1H-cyclopropa[i]pyrrolo[1,2-e][1,5,8]oxadiazacyclopentadecin-6-yl)carbamate] was run?
**A.** 1.01 to 5 nM

**Q.** And the EC50 (HCV GT1b(Con1) replicon)?
**A.** 0.1 to 0.5 nM

**Q.** Which EC50 (HCV GT1a(H77) replicon) does the source give for `CC[C@@H]1OCCC/C=C\[C@@H]2C[C@@]2(C(=O)NS(=O)(=O)C2(C)CC2)NC(=O)[C@@H]2C[C@@H](Oc3cc(-c4ccc(OC(C)C)cc4)nc(-c4cncs4)c3)CN2C(=O)[C@H]1NC(=O)OC1(C(F)(F)F)CCCOC1` (stereo partly drawn) [Compound 1038, 3-(trifluoromethyl)tetrahydro-2H-pyran-3-yl ((2R,6S,7S,13aS,14aR,16aS,Z)-7-ethyl-2-((2-(4-isopropoxyphenyl)-6-(thiazol-5-yl)pyridin-4-yl)oxy)-14a-(((1-methylcyclopropyl)sulfonyl)carbamoyl)-5,16-dioxo-2,3,5,6,7,9,10,11,13a,14,14a,15,16,16a-tetradecahydro-1H-cyclopropa[i]pyrrolo[1,2-e][1,5,8]oxadiazacyclopentadecin-6-yl)carbamate] here?
**A.** 1.01 to 5 nM

**Q.** And the EC50 (HCV GT1b(Con1) replicon)?
**A.** 0.51 to 1 nM

**Q.** What does the source list for `CC[C@@H]1O[C@H](C)CC/C=C\[C@@H]2C[C@@]2(C(=O)NS(=O)(=O)C2(C)CC2)NC(=O)[C@@H]2C[C@@H](Oc3cc(-c4ccc(C(F)(F)F)cc4)nc(-c4nccs4)c3)CN2C(=O)[C@H]1NC(=O)OC(C)(C)C(F)(F)F` [Compound 1039, 1,1,1-trifluoro-2-methylpropan-2-yl ((2R,6S,7S,9R,13aS,14aR,16aS,Z)-7-ethyl-9-methyl-14a-(((1-methylcyclopropyl)sulfonyl)carbamoyl)-5,16-dioxo-2-((2-(thiazol-2-yl)-6-(4-(trifluoromethyl)phenyl)pyridin-4-yl)oxy)-2,3,5,6,7,9,10,11,13a,14,14a,15,16,16a-tetradecahydro-1H-cyclopropa[i]pyrrolo[1,2-e][1,5,8]oxadiazacyclopentadecin-6-yl)carbamate]?
**A.** EC50 (HCV GT1a(H77) replicon): 1.01 to 5 nM; EC50 (HCV GT1b(Con1) replicon): 1.01 to 5 nM
